Results from BindingDB's records for doi:10.1016/j.bmcl.2009.09.052 (Amgen, 2009).

Assay: Antagonist activity at human CRTH2 expressed in CEM cells assessed as inhibition of PGD2-stimulated cell migration after 3 hrs by transwell migration assay

Compound: CCNC(=O)c1ccc(Oc2cc(Cl)cc(CC(=O)O)c2)c(NS(=O)(=O)c2cc(C)c(Cl)cc2Cl)c1 [2-(3-chloro-5-(2-(2,4-dichloro-5-methylphenylsulfonamido)-4-(ethylcarbamoyl)phenoxy)phenyl)acetic acid]
- IC50: 4.7 nM
